Assay results: patent US20240158369A1, “PYRIMIDINE COMPOUND AS WEE-1 INHIBITOR” (WIGEN BIOMEDICINE TECHNOLOGY (SHANGHAI) CO., LTD., priority 2021, published 2024)
pIC50: −log10 of the molar value.

How the values were obtained:
[1] = target: recombinant protein Wee-1 (Homo sapiens (Human), UniProt P30291); experiment: HTRF assay for inhibiting enzymatic activity of recombinant protein Wee-1; assay type: biochemical; details: compounds up to 200 nM, read-out: (IC50) Inhibitory activity against recombinant protein Wee-1
Chain of recombinant protein Wee-1 (P30291 whole entry): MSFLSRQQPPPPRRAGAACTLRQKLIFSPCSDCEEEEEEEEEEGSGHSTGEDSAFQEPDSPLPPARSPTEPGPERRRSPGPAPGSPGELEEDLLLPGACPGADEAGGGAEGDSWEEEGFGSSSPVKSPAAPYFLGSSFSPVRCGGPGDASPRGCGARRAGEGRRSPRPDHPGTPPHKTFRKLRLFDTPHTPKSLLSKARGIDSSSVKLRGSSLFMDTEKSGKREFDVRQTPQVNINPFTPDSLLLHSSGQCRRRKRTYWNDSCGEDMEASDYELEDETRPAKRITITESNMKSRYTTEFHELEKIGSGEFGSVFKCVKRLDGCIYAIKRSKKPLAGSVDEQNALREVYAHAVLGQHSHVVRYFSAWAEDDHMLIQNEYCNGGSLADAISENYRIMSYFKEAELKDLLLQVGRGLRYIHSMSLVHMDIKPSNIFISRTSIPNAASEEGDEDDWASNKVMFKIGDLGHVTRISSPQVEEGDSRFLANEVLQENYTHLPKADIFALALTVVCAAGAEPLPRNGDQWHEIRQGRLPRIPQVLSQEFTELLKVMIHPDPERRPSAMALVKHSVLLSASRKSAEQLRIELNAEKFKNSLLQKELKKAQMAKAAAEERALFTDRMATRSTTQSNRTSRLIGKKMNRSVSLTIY
Procedure, shortened: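 Compound (up to 200 nM, 1:5 series) preincubated with Wee-1 in kinase buffer 30 min at 37° C; Fluorescein-PolyGAT and ATP then added, reaction run 90 min at room temperature. Antibody detection 60 min; 520/495 nm ratio versus DMSO gave % inhibition and IC50.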

MIA PaCa-2 cells [2] = experiment: In-vitro anti-proliferative activity on MIA PaCa-2 cells (intracellular ATP content, 72 h); assay type: cell-based; details: Homo sapiens, compound alone, read-out: IC50 (nM) antiproliferative activity against MIA PaCa-2 cells
Experimental: (§1) MIA PaCa-2 cells were seeded on a 384-well plate at 3000 cells/well. After overnight adherence culture, DMSO or the compounds serially 1:5-diluted from 5 μM were added. The viability was assessed 72 h after dosing by measuring the intracellular ATP content. The inhibition percentage of viable cells by the compounds was calculated by comparing with the DMSO group, and the IC50 value was calculated.

MIA PaCa-2 cells [3] = experiment: In-vitro anti-proliferative activity in combination with gemcitabine on MIA PaCa-2 cells; assay type: cell-based; details: 72 h
Experimental: as §1, with “cells/well, and 20 nM or 200 nM gemcitabine (GMC) was added.” for “cells/well.”, “100 nM” for “5 μM”

[4] = test system: HT29 subcutaneous xenograft tumor; experiment: Mouse HT29 subcutaneous xenograft tumor model (Example 165), with 30 mg/kg gemcitabine; assay type: in vivo
Experimental: HT29 is a colon cancer cell. Each nude mouse was grafted subcutaneously with 5×10^6HT29 cells. When the tumor grew to 100-200 mm^3, the compound was administered orally once a day in combination with 30 mg/kg of gemcitabine injected intraperitoneally once a week, and the tumor volume was measured twice a week and at the end of treatment. Tumor growth inhibition of the compound was calculated according to the following equation: tumor growth inhibition (TGI)=1−(tumor volume on day 20 in treatment group−tumor volume on day 1 in treatment group)/(tumor volume on day 20 in vehicle control group−tumor volume on day 1 in treatment group).

[5] = test system: HT29 subcutaneous xenograft tumor; experiment: Mouse HT29 subcutaneous xenograft tumor model (Example 164), alone or with 15 mg/kg gemcitabine; assay type: in vivo; details: gemcitabine alone 15 mg/kg intraperitoneally once a week
Experimental: HT29 is a colon cancer cell. Each nude mouse was grafted subcutaneously with 5×10^6HT29 cells. When the tumor grew to 100-200 mm^3, the compound was administered orally once a day alone or in combination with 15 mg/kg of gemcitabine injected intraperitoneally once a week, and the tumor volume was measured twice a week and at the end of treatment. Tumor growth inhibition of the compound was calculated according to the following equation: tumor growth inhibition (TGI)=1−(tumor volume on day 20 in treatment group−tumor volume on day 1 in treatment group)/(tumor volume on day 20 in vehicle control group−tumor volume on day 1 in treatment group).

[6] = with 20 nM gemcitabine, read-out: in combination with 20 nM GMC IC50
[7] = 30 mg/kg orally once a day in combination with 30 mg/kg of gemcitabine ip once a week
[8] = 30 mg/kg orally once a day in combination with 30 mg/kg of gemcitabine ip once a week, day 20

SMILES: CN1CCc2ccc(Nc3ncc(C#N)c(Nc4cccc(N=S(C)(C)=O)n4)n3)cc2C1 [Compound 1]
- pIC50 [1]: ≥ 8.00
- IC50 (MIA PaCa-2 cells [2]): 735 nM
- pIC50 (MIA PaCa-2 cells [3]; [6]): 8.34

SMILES: CN1CCc2ccc(Nc3ncc(C(F)(F)F)c(Nc4cccc(N=S(C)(C)=O)n4)n3)cc2C1 [Compound 2]
- pIC50 [1]: < 7.30
- IC50 (MIA PaCa-2 cells [2]): 398 nM
- pIC50 (MIA PaCa-2 cells [3]; [6]): 7.52

SMILES: CN1CCc2ccc(Nc3ncc(C4CC4)c(Nc4cccc(N=S(C)(C)=O)n4)n3)cc2C1 [Compound 3]
- pIC50 [1]: < 7.30
- IC50 (MIA PaCa-2 cells [2]): 879 nM
- pIC50 (MIA PaCa-2 cells [3]; with 200 nM gemcitabine, read-out: in combination with 200 nM GMC IC50): < 7.00

SMILES: CN1CCc2ccc(Nc3ncc(P(C)(C)=O)c(Nc4cccc(N=S(C)(C)=O)n4)n3)cc2C1 [Compound 4]
- pIC50 [1]: < 7.30
- IC50 (MIA PaCa-2 cells [2]): > 5000 nM
- pIC50 (MIA PaCa-2 cells [3]; [6]): < 7.00

SMILES: CC(C)c1cc(Nc2ncc(C#N)c(Nc3cccc(N=S(C)(C)=O)n3)n2)cc2c1CCN(C)C2 [Compound 14]
- pIC50 [1]: ≥ 8.00
- pIC50 (MIA PaCa-2 cells [3]; [6]): 9.00
- Tumor volume on day 20 of treatment (mm^3) [4, 7]: 38 mm^3
- TGI [4, 8]: 106%

SMILES: CN1CCc2c(cc(Nc3ncc(C#N)c(Nc4cccc(N=S(C)(C)=O)n4)n3)cc2C2CCCC2)C1 [Compound 18]
- pIC50 [1]: ≥ 8.00
- pIC50 (MIA PaCa-2 cells [3]; [6]): 8.68
- Tumor volume on day 20 of treatment (mm^3) [4, 7]: 218 mm^3
- TGI [4, 8]: 92%

SMILES: CC(C)Cc1cc(Nc2ncc(C#N)c(Nc3cccc(N=S(C)(C)=O)n3)n2)cc2c1CCN(C)C2 [Compound 87]
- pIC50 (MIA PaCa-2 cells [3]; [6]): 8.74
- Tumor volume on day 20 of treatment (mm^3) [4, 7]: 395 mm^3
- TGI [4, 8]: 79%

SMILES: CN1CCc2c(cc(Nc3ncc(C#N)c(Nc4cccc(N=S(C)(C)=O)n4)n3)cc2C2CCC2)C1 [Compound 97]
- pIC50 [1]: ≥ 8.00
- pIC50 (MIA PaCa-2 cells [3]; [6]): 8.80
- Tumor volume on day 20 of treatment (mm^3) [4, 7]: 278 mm^3
- TGI [4, 8]: 88%

SMILES: CN1CCc2c(cc(Nc3ncc(C#N)c(Nc4cccc(N=S(C)(C)=O)n4)n3)cc2C2(C)CC2)C1 [Compound 101]
- pIC50 [1]: ≥ 8.00
- pIC50 (MIA PaCa-2 cells [3]; [6]): 8.36
- Tumor volume on day 20 of treatment (mm^3) [4, 7]: 95 mm^3
- TGI [4, 8]: 102%

SMILES: CN1CCc2c(cc(Nc3ncc(C#N)c(Nc4cccc(N=S(C)(C)=O)n4)n3)cc2C2CCOCC2)C1 [Compound 117]
- pIC50 [1]: ≥ 8.00
- pIC50 (MIA PaCa-2 cells [3]; [6]): 8.82
- Tumor volume on day 20 of treatment (mm^3) [4, 7]: 283 mm^3
- TGI [4, 8]: 87%

SMILES: COCCCc1cc(Nc2ncc(C#N)c(Nc3cccc(N=S(C)(C)=O)n3)n2)cc2c1CCN(C)C2 [Compound 128]
- pIC50 [1]: ≥ 8.00
- pIC50 (MIA PaCa-2 cells [3]; [6]): 8.60
- Tumor volume on day 20 of treatment (mm^3) [4, 7]: 284 mm^3
- TGI [4, 8]: 87%

SMILES: Nc1ccn([C@@H]2O[C@H](CO)[C@@H](O)C2(F)F)c(=O)n1 [Gemcitabine, gemcitabine, reference compound]
- Tumor volume on day 1 of treatment (mm^3) ([5]; day 1): 102 mm^3
- TGI ([5]; day 20): 54%
- Tumor volume on day 20 of treatment (mm^3) ([5]; day 20): 550 mm^3
- inhibition in vivo at 30 mg/kg ([4]; Mus musculus, HT-29, ip, 480 h, gemcitabine alone 30 mg/kg intraperitoneally once a week, day 20, read-out: TGI): 60%
- Tumor volume on day 20 of treatment (mm^3) ([4]; gemcitabine alone 30 mg/kg intraperitoneally once a week): 653 mm^3
